Laboratory results taken from patent US5962516A, “Immunosuppressive compounds and methods” (priority 1999, dated 1999).
Entries after “also recorded” stand apart in the source; their conditions may differ. Counter-ions that a name gives are not always drawn.

Key:
[1] = test system: male fertility; experiment: Effect on fertility in male mice; assay type: in vivo, mouse (BDF1)
Description: (§1) The compounds of the invention are also effective in reducing or inhibiting male fertility, wherein administration of a compound of the invention to a male mammal is effective to reduce the potency of the male's semen, thereby reducing or blocking fertilization. Triptolide succinate (YM-262) was tested for inhibition of fertility in male BDF1 mice, according to protocols described in Example 15. The compound was administered intraperitoneally (IP) in a saline solution, using a cycle of daily administration for 5 days followed by a two day cessation of treatment. Dose levels were 0.04 or 0.13 mg/kg/day. The cycle was repeated for 5 weeks before evaluation of physiological effects (testis weight) and reproductive performance.
The effect of the compound on fertility was tested with groups of five male mice treated according to the same schedule. Each male was housed with two females starting on day 32, after termination of YM-262 treatment.
(§2) Triptolide succinate (YM-262) was tested for fertility control in male BDF1 mice, using a cycle of daily administration for 5 days followed by a two day cessation of treatment. The cycle was repeated for 5 weeks, with dosing on days 0-4, 7-11, 14-18, 21-25 and 28-32 before evaluation of physiological effects and reproductive performance.
A dosing solution of YM-262 was prepared once a week from a stock solution in saline at 1.0 mg/ml and stored at 4° C. […]

[2] = test system: male fertility; experiment: Effect on fertility in male mice; assay type: in vivo, mouse (BDF1); details: for delay of time from cohabitation to birth / increase in time from cohabitation to birth: vs control
[3] = test system: testis weight; experiment: Effect on testis weight in male mice; assay type: in vivo, mouse (BDF1); design: decrease in testis weight: dose or concentration left out as unconfirmed; details: 5 days on/2 days off, 5 weeks, vs saline control
Description: as §1, with “Dose levels were 0.04 or 0.13 mg/kg/day.” left out
as §2, with “performance. […]” for “performance.”
On day 32, five to six mice from each dosing group were sacrificed, and the testes were removed and stored in formalin for histological analysis and weight determination. The average of both testes was calculated for each mouse, and the mean and standard error of the mean (S.E.) were determined.

[4] = Stability in water (D2O) by 1H NMR; assay type: physicochemical; details: room temperature, Succinate Sodium Salt
Description: Sodium triptolide succinate, designated YM-274, was dissolved in D2 O, and the aqueous solution was stored at room temperature.
A solution of sodium triptolide succinate (YM-274) in D2 O was prepared at a concentration of 3 mg/ml and stored at room temperature. The solution was analyzed by ^1 H NMR at intervals of 1, 3, 5, 15, 45, 90, 180 minutes; 1, 7, 14 days; and 1, 2, 3, and 5 months.

[5] = 0.03 mg/kg/day (so in the source) i.p.
[6] = 0.1 mg/kg/day (so in the source) i.p.

Question: With `CC(C)C12OC1C1OC13C1(C)CCC4=C(COC4=O)C1CC1OC13C2OC(=O)CCC(=O)O` (stereo not shown) [YM-262, Triptolide Succinate] as the compound, how does the “delay of recovery of fertility after termination of therapy” value ([1]; 0.13 mg/kg/day i.p. over 32 days) read?
Answer: 21 days

Question: And the “reversibility of antifertility effect” value ([1]; after cessation of administration)?
Answer: the antifertility effect was reversible; also recorded: the control of fertility was reversible

Question: And the “time from beginning of cohabitation to birth of litters” value [2, 5]?
Answer: 28 days

Question: And the “delay of time from cohabitation to birth” value [2, 5]?
Answer: 17%

Question: What about the “period of unproductive mating” value ([2]; 0.04 mg/kg/day i.p.) of the same compound?
Answer: approximately four-day period of unproductive mating

Question: What about the “time from beginning of cohabitation to birth of litters” value ([2]; 0.04 mg/kg/day i.p.) of the same compound?
Answer: 28 days

Question: What about the “delay of time from cohabitation to birth” value ([2]; 0.04 mg/kg/day i.p.) of the same compound?
Answer: 17%

Question: What about the “time from cohabitation to birth” value [2, 6] of the same compound?
Answer: 45 days

Question: And the “delay of recovery of fertility after termination of therapy” value ([2]; 0.1 mg/kg/day (so in the source) i.p. over 32 days)?
Answer: 21 days

Question: And the “increase in time from cohabitation to birth” value [2, 6]?
Answer: 88%

Question: What about the “time from cohabitation to birth” value ([2]; 0.13 mg/kg/day i.p.) of the same compound?
Answer: 45 days

Question: What about the “increase in time from cohabitation to birth” value ([2]; 0.13 mg/kg/day i.p.) of the same compound?
Answer: 88%

Question: And the “reduction in testis weight” value ([3]; 0.13 mg/kg/day i.p.)?
Answer: approximately 13%

Question: What about the “decrease in testis weight” value ([3]; (as printed) i.p.) of the same compound?
Answer: approximately 13%

Question: For `CC(C)C12OC1C1OC13C1(C)CCC4=C(COC4=O)C1CC1OC13C2OC(=O)CCC(=O)O` (stereo not shown) [YM-274, Triptolide Succinate Sodium Salt], which “stability in aqueous solution, three months” value ([4]; 3 months) is on record?
Answer: no appreciable change in the NMR spectrum; also recorded: unchanged after three months in solution

Question: What about the “stability in aqueous solution, five months” value ([4]; 5 months) of the same compound?
Answer: Some decomposition was apparent; also recorded: some decomposition was observed
